Measured values from ChEMBL document CHEMBL5543173, “Discovery of a New Anti-Inflammatory Agent from Anemoside B4 Derivatives and Its Therapeutic Effect on Colitis by Targeting Pyruvate Carboxylase” (J Med Chem, 2024).
Active and inactive are the calls of the source. The rule behind the calls is not given here.

Assays:
THP-1 [1] = assay: Anti-inflammatory activity in human THP-1 cells assessed as decrease in LPS-induced TNF-alpha level pretreated for 1 hr followed by LPS treatment for 24 hrs by ELISA; type: functional, cell-based; conditions: dose 0.1-10 µM, time 25.0 hrs
[2] = AUC (0 to t) in ICR mouse at 15 mg/kg, IG measured for 12 hrs by LC-MS/MS analysis; type: ADME, organism-based; conditions: in vivo, po
Mus musculus [3] = assay: Anti-colitis activity in ICR mouse model assessed as […] DSS-induced colon length at 15 to 60 mg/kg, IG treated for 8 days consecutively; type: functional, organism-based; conditions: dose 15-60 mg/kg, time 8.0 day
Mus musculus [4] = assay: Anti-colitis activity in ICR mouse model assessed as decrease in DSS-induced epithelial cell injury in colon tissue at 60 mg/kg, IG treated for 8 days consecutively in presence of DADA by H and E staining based analysis; type: functional, organism-based; conditions: time 8.0 day
Mus musculus [5] = assay: Anti-colitis activity in ICR mouse model assessed as decrease in DSS-induced body weight loss at 15 to 60 mg/kg, IG treated for 9 days consecutively; type: functional, organism-based; conditions: dose 15-60 mg/kg, time 9.0 day
[6] = Half life in ICR mouse at 15 mg/kg, IG measured for 12 hrs by LC-MS/MS analysis; type: ADME, organism-based; conditions: ICR, in vivo, po
Mus musculus [7] = assay: Anti-colitis activity in ICR mouse model assessed as […] DSS-induced colon length at 60 mg/kg, IG treated for 8 days consecutively in presence of DADA; type: functional, organism-based; conditions: time 8.0 day
[8] = MRT (0 to t) in ICR mouse at 15 mg/kg, IG measured for 12 hrs by LC-MS/MS analysis; type: ADME, organism-based; conditions: in vivo, po
THP-1 [9] = assay: Anti-inflammatory activity in human THP-1 cells assessed as decrease in LPS-induced phosphorylated I-kappaB-alpha level pretreated for 1 hr followed by LPS treatment for 6 hrs by Western blot analysis; type: functional, cell-based; conditions: dose 1-10 µM, time 7.0 hrs
THP-1 [10] = assay: Anti-inflammatory activity in human THP-1 cells assessed as decrease in LPS-induced NLRP3 level at 1 to 10 uM pretreated for 1 hr followed by LPS/ATP treatment for 6 hrs by Western blot analysis; type: functional, cell-based; conditions: dose 1-10 µM, time 7.0 hrs
THP-1 [11] = assay: Anti-inflammatory activity in human THP-1 cells assessed as decrease in LPS-induced IL-1beta level at 10 uM pretreated for 1 hr followed by LPS treatment for 24 hrs in presence of DADA by ELISA; type: functional, cell-based; conditions: time 25.0 hrs
Mus musculus [12] = assay: Anti-colitis activity in ICR mouse model assessed as decrease in DSS-induced I-kappaB-alpha degradation in colon tissue at 60 mg/kg, IG treated for 8 days consecutively in presence of DADA by Western blot analysis; type: functional, organism-based; conditions: time 8.0 day
[13] = Volume of distribution in colon of ICR mouse at 15 mg/kg, IG measured for 12 hrs by LC-MS/MS analysis; type: ADME, organism-based; conditions: in vivo, po
[14] = Cmax in colon of ICR mouse at 15 mg/kg, IG measured for 12 hrs by LC-MS/MS analysis; type: ADME, organism-based; conditions: po
Mus musculus [15] = assay: Anti-colitis activity in ICR mouse model assessed as decrease in DSS-induced inflammatory cell infiltration in colon tissue at 15 to 60 mg/kg, IG treated for 8 days consecutively by H and E staining based analysis; type: functional, organism-based; conditions: dose 15-60 mg/kg, time 8.0 day
[16] = Half life in colon of ICR mouse at 15 mg/kg, IG measured for 12 hrs by LC-MS/MS analysis; type: ADME, organism-based; conditions: po
[17] = Toxicity in ICR mouse assessed as change in body weight at 300 mg/kg, IG measured for 9 days; type: organism-based; conditions: in vivo, po, 216 h, time 9 day
[18] = Toxicity in ICR mouse assessed as change in heart index at 300 mg/kg, IG measured for 9 days; type: organism-based; conditions: in vivo, po, 216 h, time 9 day
[19] = AUC (0 to t) in Sprague-Dawley rat administered as hydroxypropyl-beta-cyclodextrin at 20 mg/kg, IG measured for 12 hrs by LC-MS/MS analysis; type: ADME, organism-based; conditions: in vivo, po
[20] = Half life in Sprague-Dawley rat administered as hydroxypropyl-beta-cyclodextrin at 20 mg/kg, IG measured for 12 hrs by LC-MS/MS analysis; type: ADME, organism-based; conditions: in vivo, po
[21] = Stability in mouse liver microsomes assessed as half life at 10 uM preincubated for 5 mins followed by NADPH addition measured for 10 to 480 mins by LC-MS/MS analysis; type: ADME, Microsome; conditions: time 15-485 min
[22] = Volume of distribution in ICR mouse at 15 mg/kg, IG measured for 12 hrs by LC-MS/MS analysis; type: ADME, organism-based; conditions: in vivo, po
[23] = Toxicity in ICR mouse assessed as change in lungs index at 300 mg/kg, IG measured for 9 days; type: organism-based; conditions: in vivo, po, 216 h, time 9 day
[24] = Toxicity in ICR mouse assessed as change in liver index at 300 mg/kg, IG measured for 9 days; type: organism-based; conditions: in vivo, po, 216 h, time 9 day
THP-1 [25] = assay: cells; conditions: Homo sapiens, THP-1, 24 h
Description: Cytotoxicity against human THP-1 cells assessed as inhibition of cell viability incubated for 24 hrs by CCK8 assay

Mus musculus [26] = assay: Anti-colitis activity in ICR mouse model assessed as decrease in DSS-induced P65 phosphorylation in colon tissue at 60 mg/kg, IG treated for 8 days consecutively by Western blot analysis; type: functional, organism-based; conditions: time 8.0 day
Mus musculus [27] = assay: Anti-colitis activity in ICR mouse model assessed as decrease in DSS-induced pyruvate carboxylase level at 60 mg/kg, IG treated for 8 days consecutively; type: functional, organism-based; conditions: time 8.0 day
Mus musculus [28] = assay: Anti-colitis activity in ICR mouse model assessed as decrease in DSS-induced pyruvate carboxylase level at 60 mg/kg, IG treated for 8 days consecutively in presence of DADA; type: functional, organism-based; conditions: time 8.0 day
[29] = Tmax in Sprague-Dawley rat administered as hydroxypropyl-beta-cyclodextrin at 20 mg/kg, IG measured for 12 hrs by LC-MS/MS analysis; type: ADME, organism-based; conditions: in vivo, po
Mus musculus [30] = assay: Anti-colitis activity in ICR mouse model assessed as increase in DSS-reduced pyruvate level at 60 mg/kg, IG treated for 8 days consecutively in presence of DADA; type: functional, organism-based; conditions: time 8.0 day
THP-1 [31] = assay: Anti-inflammatory activity in LPS-treated human THP-1 cells assessed as decrease in phosphorylated I-kappaB-alpha level at 10 uM pretreated for 1 hr followed by LPS treatment for 6 hrs by Western blot analysis; type: functional, cell-based; conditions: time 7.0 hrs

In the case of `C=C(C)[C@@H]1CC[C@]2(C(=O)NCCCCCC(=O)OC)CC[C@]3(C)[C@H](CC[C@@H]4[C@@]5(C)CC[C@H](O[C@@H]6OC[C@H](O)[C@H](O)[C@H]6O[C@@H]6O[C@@H](C)[C@H](O)[C@@H](O)[C@H]6O)[C@@](C)(CO)[C@@H]5CC[C@]43C)[C@@H]12`, the Activity (THP-1 [1]) is reported as “Dose-Dependent Effect”, the AUCt [2] is reported as 108.09 ng·h/mL and the Activity (Mus musculus [3]) is reported as “Active”. For the same compound, the Activity (Mus musculus [4]) was “inactive”, the Activity (Mus musculus [5]) was “Active” and the half-life [6] was 2.46 h. The Activity (Mus musculus [7]) was “inactive”, the MRT last at 12 h [8] was 3.1 h and the Activity (THP-1 [9]) was “Dose-Dependent Effect”. The Activity (THP-1 [10]) was “Active”, the Activity (THP-1 [11]) was “inactive” and the Activity (Mus musculus [12]) was “inactive”. For the same compound, the Vd [13] was 97.34 L/kg, the Cmax [14] was 1110 ng/mL and the Activity (Mus musculus [15]) was “Active”. For the same compound, the half-life [16] was 1.54 h, the Activity [17] was “Non-Toxic” and the Activity [18] was “Non-Toxic”. The AUCt [19] was 223.22 ng·h/mL, the t1/2 [20] was 1.38 h and the t1/2 [21] was 6.46 min. For the same compound, the Vd [22] was 2867.15 L/kg, the Activity [23] was “Non-Toxic” and the Activity [24] was “Non-Toxic”. For the same compound, the IC50 (THP-1 [25]) was ≥ 80 µM, the Activity (Mus musculus [26]) was “Active” and the Activity (Mus musculus [27]) was “Active”. The Activity (Mus musculus [28]) was “inactive”, the Tmax [29] was 0.5 h and the Activity (Mus musculus [30]) was “inactive”. The Activity (THP-1 [31]) was “Active”.
